According to ChEMBL document CHEMBL4373717, “Coumarin-containing hybrids and their anticancer activities” (Eur J Med Chem, 2019):
Values after ≈ are worked out from the molar mass of the structure shown. Values belong to the compound of their own block, whether it stands above or below them.

How the values were obtained:
Caco-2 = assay: Antiproliferative activity against human Caco2 cells after 72 hrs by ELISA; format: functional, cell-based; settings: Caco-2, 72 h
HepG2 [1] = assay: Antiproliferative activity against human HepG2 cells after 72 hrs by ELISA; format: functional, cell-based; settings: HepG2, 72 h
MCF7 [2] = assay: Antiproliferative activity against human MCF7 cells after 72 hrs by ELISA; format: functional, cell-based; settings: MCF7, 72 h
MCF7 [3] = assay: Cytotoxicity against human MCF7 cells assessed as reduction in cell viability after 68 hrs by MTT assay; format: functional, cell-based; settings: MCF7, 68 h
HeLa [4] = assay: Cytotoxicity against human HeLa cells assessed as reduction in cell viability after 68 hrs by MTT assay; format: functional, cell-based
A549 [5] = assay: Cytotoxicity against human A549 cells assessed as reduction in cell viability after 68 hrs by MTT assay; format: functional, cell-based; settings: A549, 68 h
K562 = assay: Cytotoxicity against human K562 cells assessed as reduction in cell viability after 68 hrs by MTT assay; format: functional, cell-based; settings: K562, 68 h
[6] = target: RAC-alpha serine/threonine-protein kinase (Homo sapiens, UniProt P31749); assay: Inhibition of AKT phosphorylation in human K562 cells; format: cell-based
RAC-alpha serine/threonine-protein kinase, sequence (P31749 whole entry): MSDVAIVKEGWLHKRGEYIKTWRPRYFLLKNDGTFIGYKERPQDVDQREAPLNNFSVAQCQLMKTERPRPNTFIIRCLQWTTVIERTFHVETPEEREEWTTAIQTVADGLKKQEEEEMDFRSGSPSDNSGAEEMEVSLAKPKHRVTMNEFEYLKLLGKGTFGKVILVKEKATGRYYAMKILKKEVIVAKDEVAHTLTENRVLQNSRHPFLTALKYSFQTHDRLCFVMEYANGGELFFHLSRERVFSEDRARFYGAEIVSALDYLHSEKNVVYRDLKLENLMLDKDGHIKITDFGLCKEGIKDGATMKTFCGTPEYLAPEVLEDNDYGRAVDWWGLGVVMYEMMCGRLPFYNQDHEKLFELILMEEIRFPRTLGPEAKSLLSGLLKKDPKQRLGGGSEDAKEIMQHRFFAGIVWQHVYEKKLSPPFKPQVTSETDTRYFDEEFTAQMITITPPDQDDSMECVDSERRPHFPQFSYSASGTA

DU-145 = assay: Cytotoxicity against human DU145 cells assessed as reduction in cell viability after 24 hrs by MTT assay; format: functional, cell-based; settings: DU-145, 24 h
SK-MEL-28 = assay: Cytotoxicity against human SK-MEL-28 cells assessed as reduction in cell viability after 24 hrs by MTT assay; format: functional, cell-based; settings: SK-MEL-28, 24 h
A549 [7] = assay: Cytotoxicity against human A549 cells assessed as reduction in cell viability after 24 hrs by MTT assay; format: functional, cell-based; settings: A549, 24 h
BT-20 = assay: Cytotoxicity against human BT20 cells assessed as reduction in cell viability after 24 hrs by MTT assay; format: functional, cell-based; settings: BT-20, 24 h
HeLa [8] = assay: Antiproliferative activity against human HeLa cells by MTT assay; format: functional, cell-based
MCF7 [9] = assay: Cytotoxicity against human MCF7 cells assessed as reduction in cell viability by MTT assay; format: functional, cell-based; settings: Homo sapiens, MCF7
HepG2 [10] = assay: Cytotoxicity against human HepG2 cells assessed as reduction in cell viability by MTT assay; format: functional, cell-based; settings: Homo sapiens, HepG2

SMILES: C/C(=N\Nc1ccccc1)c1ccc(NS(=O)(=O)c2ccc3oc(=O)ccc3c2)cc1
IC50 (Caco-2): 8.53 µM
IC50 (HepG2 [1]): 5.03 to 175 µM
IC50 (MCF7 [2]): 5.03 to 175 µM

SMILES: C/C(=N\Nc1ccc([N+](=O)[O-])cc1[N+](=O)[O-])c1ccc(NS(=O)(=O)c2ccc3oc(=O)ccc3c2)cc1
IC50 (Caco-2): 5.03 to 175 µM
IC50 (HepG2 [1]): 5.03 to 175 µM
IC50 (MCF7 [2]): 5.03 to 175 µM

SMILES: O=C(Cn1nc(Cc2ccc(Cl)cc2)[nH]c1=O)NNC(=O)c1cc2cc(Cl)cc(Cl)c2oc1=O
IC50 (DU-145): 3.1 to 37.9 µg/mL (≈ 5.93 to 72.5 µM)
IC50 (SK-MEL-28): 3.1 to 37.9 µg/mL (≈ 5.93 to 72.5 µM)
IC50 (A549 [7]): 3.1 to 37.9 µg/mL (≈ 5.93 to 72.5 µM)
IC50 (BT-20): 3.1 to 37.9 µg/mL (≈ 5.93 to 72.5 µM)

SMILES: O=C(Cn1nc(Cc2ccc(Cl)c(Cl)c2)[nH]c1=O)NNC(=O)c1cc2cc(Cl)ccc2oc1=O
IC50 (DU-145): 3.1 to 37.9 µg/mL (≈ 5.93 to 72.5 µM)
IC50 (SK-MEL-28): 3.1 to 37.9 µg/mL (≈ 5.93 to 72.5 µM)
IC50 (A549 [7]): 3.1 to 37.9 µg/mL (≈ 5.93 to 72.5 µM)
IC50 (BT-20): 3.1 to 37.9 µg/mL (≈ 5.93 to 72.5 µM)

SMILES: Cc1c(Cc2ccc(NC(=O)Nc3ccc(Br)cc3)nc2)c(=O)oc2cc(O)c(C(C)(C)C)cc12
IC50 (MCF7 [3]): 1.66 to 9.27 µM
IC50 (HeLa [4]): 1.66 to 9.27 µM
IC50 (A549 [5]): 1.66 to 9.27 µM
IC50 (K562): 1.66 to 9.27 µM
IC50 [6]: < 10 µM

SMILES: Cc1ccc2oc(=O)cc(CSc3nc(-c4ccccc4)c(C#N)c(N4CCNCC4)n3)c2c1
IC50 (MCF7 [9]): 5.5 to 91.1 µM
IC50 (HepG2 [10]): 5.5 to 91.1 µM

SMILES: O=C(Cn1nc(Cc2ccc(Br)cc2)[nH]c1=O)NNC(=O)c1cc2cc(Cl)cc(Cl)c2oc1=O
IC50 (DU-145): 3.1 to 37.9 µg/mL (≈ 5.47 to 66.8 µM)
IC50 (SK-MEL-28): 3.1 to 37.9 µg/mL (≈ 5.47 to 66.8 µM)
IC50 (A549 [7]): 3.1 to 37.9 µg/mL (≈ 5.47 to 66.8 µM)
IC50 (BT-20): 3.1 to 37.9 µg/mL (≈ 5.47 to 66.8 µM)

SMILES: Cc1ccc2oc(=O)cc(CSc3nc(-c4ccccc4)c(C#N)c(N4CCOCC4)n3)c2c1
IC50 (MCF7 [9]): 5.5 to 91.1 µM
IC50 (HepG2 [10]): 5.5 to 91.1 µM

SMILES: Cc1ccc2oc(=O)cc(CSc3nc(NCc4ccccc4)c(C#N)c(-c4ccccc4)n3)c2c1
IC50 (MCF7 [9]): 5.5 to 91.1 µM
IC50 (HepG2 [10]): 5.5 to 91.1 µM

SMILES: Cc1c(Cc2ccc(NC(=O)Nc3ccc(F)cc3)nc2)c(=O)oc2cc(O)c(C(C)(C)C)cc12
IC50 (MCF7 [3]): 1.66 to 9.27 µM
IC50 (HeLa [4]): 1.66 to 9.27 µM
IC50 (A549 [5]): 1.66 to 9.27 µM
IC50 (K562): 1.66 to 9.27 µM
IC50 [6]: < 10 µM

SMILES: Cc1ccc2oc(=O)cc(CSc3nc(NN)c(C#N)c(-c4ccccc4)n3)c2c1
IC50 (MCF7 [9]): 6.9 µM
IC50 (HepG2 [10]): 5.5 µM

The next lines start with results.

IC50 [6]: < 10 µM
SMILES: Cc1c(Cc2ccc(NC(=O)Nc3ccc(F)c(F)c3)nc2)c(=O)oc2cc(O)c(C(C)(C)C)cc12
IC50 (MCF7 [3]): 1.66 to 7.86 µM
IC50 (HeLa [4]): 1.66 to 7.86 µM
IC50 (A549 [5]): 1.66 to 7.86 µM
IC50 (K562): 1.66 to 7.86 µM

IC50 (Caco-2): 5.03 to 175 µM
IC50 (HepG2 [1]): 5.03 µM
IC50 (MCF7 [2]): 5.03 to 175 µM
SMILES: C/C(=N\NC1=NC(=O)CS1)c1ccc(NS(=O)(=O)c2ccc3oc(=O)ccc3c2)cc1

IC50 (Caco-2): 5.03 to 175 µM
IC50 (HepG2 [1]): 5.03 to 175 µM
IC50 (MCF7 [2]): 5.03 to 175 µM
SMILES: C/C(=N\NC1=NC(=O)C(C)S1)c1ccc(NS(=O)(=O)c2ccc3oc(=O)ccc3c2)cc1 (configuration not stated)

IC50 (HeLa [8]): 0.0091 to 0.569 µM
SMILES: CCOC(=O)c1sc(N/N=C(\C)c2cc3cc(Cl)ccc3oc2=O)nc1C

IC50 (Caco-2): 5.03 to 175 µM
IC50 (HepG2 [1]): 3.48 µM
IC50 (MCF7 [2]): 5.03 to 175 µM
SMILES: C/C(=N\Nc1nc(C)c(-c2ccccc2)s1)c1ccc(NS(=O)(=O)c2ccc3oc(=O)ccc3c2)cc1

IC50 [6]: < 10 µM
SMILES: Cc1ccc(NC(=O)Nc2ccc(Cc3c(C)c4cc(C(C)(C)C)c(O)cc4oc3=O)cn2)cc1
IC50 (MCF7 [3]): 1.66 to 9.27 µM
IC50 (HeLa [4]): 1.66 to 9.27 µM
IC50 (A549 [5]): 1.66 to 9.27 µM
IC50 (K562): 1.66 to 9.27 µM

IC50 (Caco-2): 5.03 to 175 µM
IC50 (HepG2 [1]): 5.03 to 175 µM
IC50 (MCF7 [2]): 5.03 to 175 µM
SMILES: C/C(=N\Nc1c(Cl)cc(Cl)cc1Cl)c1ccc(NS(=O)(=O)c2ccc3oc(=O)ccc3c2)cc1

IC50 (HeLa [8]): 0.0091 to 0.569 µM
SMILES: CCOC(=O)c1sc(N/N=C(\C)c2cc3cc(Br)ccc3oc2=O)nc1C

IC50 (HeLa [8]): 0.0091 to 0.569 µM
SMILES: CCOC(=O)c1sc(N/N=C(\C)c2cc3ccccc3oc2=O)nc1C

IC50 [6]: < 10 µM
SMILES: Cc1c(Cc2ccc(NC(=O)Nc3ccccc3Cl)nc2)c(=O)oc2cc(O)c(C(C)(C)C)cc12
IC50 (MCF7 [3]): 1.66 to 9.27 µM
IC50 (HeLa [4]): 1.66 to 9.27 µM
IC50 (A549 [5]): 1.66 to 9.27 µM
IC50 (K562): 1.66 to 9.27 µM

IC50 (HeLa [8]): 0.0091 to 0.569 µM
SMILES: COC(=O)c1sc(N/N=C(\C)c2cc3cc(Br)ccc3oc2=O)nc1C

IC50 [6]: < 10 µM
SMILES: Cc1c(Cc2ccc(NC(=O)Nc3cccc(Cl)c3)nc2)c(=O)oc2cc(O)c(C(C)(C)C)cc12
IC50 (MCF7 [3]): 1.66 to 9.27 µM
IC50 (HeLa [4]): 1.66 to 9.27 µM
IC50 (A549 [5]): 1.66 to 9.27 µM
IC50 (K562): 1.66 to 9.27 µM

IC50 [6]: < 10 µM
SMILES: COc1ccc(NC(=O)Nc2ccc(Cc3c(C)c4cc(C(C)(C)C)c(O)cc4oc3=O)cn2)cc1
IC50 (MCF7 [3]): 1.66 to 9.27 µM
IC50 (HeLa [4]): 1.66 to 9.27 µM
IC50 (A549 [5]): 1.66 to 9.27 µM
IC50 (K562): 1.66 to 9.27 µM
